Measurements as given in ChEMBL document CHEMBL2034876, “Diversity-Oriented Synthesis Yields a Novel Lead for the Treatment of Malaria” (ACS Med Chem Lett, 2012).
≈ marks a conversion by molar mass, not a printed value.

System: Plasmodium falciparum
Assay: Antimalarial activity against asexual blood stage form of Plasmodium falciparum Dd2 infected in human erythrocytes after 72 hrs by DAPI staining
Format: functional
Conditions: Dd2, 72 h

Compared with C[C@@H]1CN([C@@H](C)CO)C(=O)c2cc(NC(=O)Nc3ccccc3)ccc2O[C@@H](C)CCCCO[C@H]1CN(C)Cc1ccccc1, C[C@@H]1CN([C@@H](C)CO)C(=O)c2cc(NC(=O)Nc3ccccc3)ccc2O[C@@H](C)CCCCO[C@H]1CN(C)Cc1ccc(F)cc1 is 3.9-fold higher in GI50: 1100 nM for the first, 4300 nM for the second.

First: C[C@@H]1CN([C@@H](C)CO)C(=O)c2cc(NS(=O)(=O)c3ccccc3)ccc2O[C@@H](C)CCCCO[C@H]1CN(C)S(=O)(=O)c1ccc(F)cc1
Second: C[C@@H]1CN([C@@H](C)CN)C(=O)c2cc(NC(=O)Nc3ccccc3)ccc2O[C@@H](C)CCCCO[C@H]1CN(C)S(=O)(=O)c1ccc(F)cc1
The GI50 of the first is 6.5-fold higher: 2400 nM for the first, 370 nM for the second.

Going from COc1ccc(COC[C@H](C)N2C[C@@H](C)[C@H](CN(C)S(=O)(=O)c3ccc(F)cc3)OCCCC[C@H](C)Oc3ccc(NC(=O)Nc4ccccc4)cc3C2=O)cc1 to COc1ccc(COC[C@@H](C)N2C[C@@H](C)[C@H](CN(C)S(=O)(=O)c3ccc(F)cc3)OCCCC[C@H](C)Oc3ccc(NC(=O)Nc4ccccc4)cc3C2=O)cc1, the GI50 rises from 0.18 nM to 36 nM (200-fold).

First: C[C@@H]1CN([C@@H](C)CO)C(=O)c2cc(NC(=O)Nc3ccccc3)ccc2O[C@@H](C)CCCCO[C@H]1CN(C)S(=O)(=O)c1ccccc1F
Second: C[C@@H]1CN([C@@H](C)CO)C(=O)c2cc(NC(=O)Nc3ccccc3)ccc2O[C@@H](C)CCCCO[C@H]1CN(C)S(=O)(=O)c1ccccc1
The GI50 of the first is 3.1-fold higher: 1100 nM for the first, 350 nM for the second.

Compared with COc1ccc(COCCN2C[C@@H](C)[C@H](CN(C)S(=O)(=O)c3ccc(F)cc3)OCCCC[C@H](C)Oc3ccc(NC(=O)Nc4ccccc4)cc3C2=O)cc1, C[C@@H]1CN(CCO)C(=O)c2cc(NC(=O)Nc3ccccc3)ccc2O[C@@H](C)CCCCO[C@H]1CN(C)S(=O)(=O)c1ccc(F)cc1 is 12-fold higher in GI50: 55 nM for the first, 640 nM for the second.

First: CC(C)NC(=O)Nc1ccc2c(c1)C(=O)N([C@@H](C)CO)C[C@@H](C)[C@H](CN(C)S(=O)(=O)c1ccc(F)cc1)OCCCC[C@H](C)O2
Second: Cc1noc(C)c1NC(=O)Nc1ccc2c(c1)C(=O)N([C@@H](C)CO)C[C@@H](C)[C@H](CN(C)S(=O)(=O)c1ccc(F)cc1)OCCCC[C@H](C)O2
The GI50 of the first is 1.7-fold higher: 400 nM for the first, 240 nM for the second.

C[C@@H]1CN([C@@H](C)COC(=O)C(C)(C)C)C(=O)c2cc(NC(=O)Nc3ccccc3)ccc2O[C@@H](C)CCCCO[C@H]1CN(C)S(=O)(=O)c1ccc(F)cc1 and COCOC[C@H](C)N1C[C@@H](C)[C@H](CN(C)S(=O)(=O)c2ccc(F)cc2)OCCCC[C@H](C)Oc2ccc(NC(=O)Nc3ccccc3)cc2C1=O are within 1.5-fold of each other in GI50: 7.3 nM for the first, 8.2 nM for the second.

Compared with C[C@@H]1CN([C@@H](C)CO)C(=O)c2cc(NC(=O)Nc3ccccc3)ccc2O[C@@H](C)CCCCO[C@H]1CN(C)C(=O)c1ccccc1, C[C@@H]1CN([C@@H](C)CO)C(=O)c2cc(NC(=O)Nc3ccccc3)ccc2O[C@@H](C)CCCCO[C@H]1CN(C)C(=O)Oc1ccccc1 is higher in GI50: 2600 nM for the first, over 5000 nM for the second.

First: C[C@@H]1CN([C@@H](C)CO)C(=O)c2cc(N(C)C)ccc2O[C@@H](C)CCCCO[C@H]1CN(C)S(=O)(=O)c1ccc(F)cc1
Second: C[C@@H]1CN([C@@H](C)CO)C(=O)c2cc(N)ccc2O[C@@H](C)CCCCO[C@H]1CN(C)S(=O)(=O)c1ccc(F)cc1
The GI50 of the first is higher: over 5000 nM for the first, 990 nM for the second.

Compared with C[C@@H]1CN([C@@H](C)CN=[N+]=[N-])C(=O)c2cc(NC(=O)Nc3ccccc3)ccc2O[C@@H](C)CCCCO[C@H]1CN(C)S(=O)(=O)c1ccc(F)cc1, CNC[C@H](C)N1C[C@@H](C)[C@H](CN(C)S(=O)(=O)c2ccc(F)cc2)OCCCC[C@H](C)Oc2ccc(NC(=O)Nc3ccccc3)cc2C1=O is 25-fold higher in GI50: 3.2 nM for the first, 79 nM for the second.

Compared with C[C@@H]1CN([C@@H](C)CO)C(=O)c2cc(Nc3nc4ccccc4o3)ccc2O[C@@H](C)CCCCO[C@H]1CN(C)S(=O)(=O)c1ccc(F)cc1, COc1ccc(S(=O)(=O)N(C)C[C@@H]2OCCCC[C@H](C)Oc3ccc(NC(=O)Nc4ccccc4)cc3C(=O)N([C@@H](C)CO)C[C@H]2C)cc1 is 3.6-fold lower in GI50: 580 nM for the first, 160 nM for the second.

Going from C[C@@H]1CN([C@@H](C)CO)C(=O)c2cc(NC(=O)Nc3ccccc3)ccc2O[C@@H](C)CCCCO[C@H]1CN(C)S(=O)(=O)c1ccc(C(F)(F)F)cc1 to C[C@@H]1CN([C@@H](C)CO)C(=O)c2cc(NC(=O)Nc3ccccc3)ccc2O[C@@H](C)CCCCO[C@H]1CN(C)S(=O)(=O)c1cccnc1, the GI50 rises from 877 nM to over 5000 nM.

First: C[C@@H]1CN([C@@H](C)CO)C(=O)c2cc(NC(=O)Nc3ccccc3)ccc2O[C@@H](C)CCCCO[C@H]1CN(C)C(=O)OC(C)(C)C
Second: COCCOC(=O)N(C)C[C@@H]1OCCCC[C@H](C)Oc2ccc(NC(=O)Nc3ccccc3)cc2C(=O)N([C@@H](C)CO)C[C@H]1C
The GI50 of the first is lower: 1400 nM for the first, over 5000 nM for the second.

Compound C[C@@H]1CN([C@@H](C)COC(=O)c2ccccc2)C(=O)c2cc(NC(=O)Nc3ccccc3)ccc2O[C@@H](C)CCCCO[C@H]1CN(C)S(=O)(=O)c1ccc(F)cc1 has a GI50 of 15 nM.

System: not listed separately
Assay: Aqueous solubility of the compound
Format: physicochemical
Conditions: water

Compound C[C@@H]1CN([C@@H](C)COC(=O)C(C)(C)C)C(=O)c2cc(NC(=O)Nc3ccccc3)ccc2O[C@@H](C)CCCCO[C@H]1CN(C)S(=O)(=O)c1ccc(F)cc1 has a solubility of under 0.5 µM.

Compound C[C@@H]1CN([C@@H](C)CO)C(=O)c2cc(NC(=O)Nc3ccccc3)ccc2O[C@@H](C)CCCCO[C@H]1CN(C)C(=O)Oc1ccccc1 has a solubility of 1.2 µM (≈ 0.776 µg/mL).

System: Plasmodium vivax
Assay: Inhibition of Plasmodium vivax DHODH-mediated 2,6-dichloroindophenol reduction after 20 mins by spectrophotometry
Conditions: not given

Compound C[C@@H]1CN([C@@H](C)CN(C)C)C(=O)c2cc(NC(=O)Nc3ccccc3)ccc2O[C@@H](C)CCCCO[C@H]1CN(C)S(=O)(=O)c1ccc(F)cc1 has an INH of over 30 µM.

System: Plasmodium berghei
Assay: Inhibition of Plasmodium berghei DHODH-mediated 2,6-dichloroindophenol reduction after 20 mins by spectrophotometry
Conditions: not given

Work on C[C@@H]1CN([C@@H](C)CN(C)C)C(=O)c2cc(NC(=O)Nc3ccccc3)ccc2O[C@@H](C)CCCCO[C@H]1CN(C)S(=O)(=O)c1ccc(F)cc1 yielded an INH of over 30 µM.

Target: Dihydroorotate dehydrogenase (quinone), mitochondrial (Homo sapiens) (UniProt Q02127)
Sequence (Q02127 whole entry): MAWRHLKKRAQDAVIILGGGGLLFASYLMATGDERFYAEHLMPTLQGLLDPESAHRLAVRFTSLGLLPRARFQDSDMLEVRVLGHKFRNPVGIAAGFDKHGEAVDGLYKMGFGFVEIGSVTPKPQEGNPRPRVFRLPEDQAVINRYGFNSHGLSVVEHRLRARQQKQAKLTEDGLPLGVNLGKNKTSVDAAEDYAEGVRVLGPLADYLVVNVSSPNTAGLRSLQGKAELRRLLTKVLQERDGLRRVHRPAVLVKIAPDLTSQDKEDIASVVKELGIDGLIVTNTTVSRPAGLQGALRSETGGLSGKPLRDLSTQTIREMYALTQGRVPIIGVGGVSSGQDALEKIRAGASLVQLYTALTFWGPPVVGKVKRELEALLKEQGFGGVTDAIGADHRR
Assay: Inhibition of human DHODH-mediated 2,6-dichloroindophenol reduction after 20 mins by spectrophotometry
Conditions: not given

C[C@@H]1CN([C@@H](C)CN(C)C)C(=O)c2cc(NC(=O)Nc3ccccc3)ccc2O[C@@H](C)CCCCO[C@H]1CN(C)S(=O)(=O)c1ccc(F)cc1 gave an INH of over 30 µM.

Target: T1, Dihydroorotate dehydrogenase (Plasmodium falciparum) (UniProt Q54A96)
T1 sequence (whole entry): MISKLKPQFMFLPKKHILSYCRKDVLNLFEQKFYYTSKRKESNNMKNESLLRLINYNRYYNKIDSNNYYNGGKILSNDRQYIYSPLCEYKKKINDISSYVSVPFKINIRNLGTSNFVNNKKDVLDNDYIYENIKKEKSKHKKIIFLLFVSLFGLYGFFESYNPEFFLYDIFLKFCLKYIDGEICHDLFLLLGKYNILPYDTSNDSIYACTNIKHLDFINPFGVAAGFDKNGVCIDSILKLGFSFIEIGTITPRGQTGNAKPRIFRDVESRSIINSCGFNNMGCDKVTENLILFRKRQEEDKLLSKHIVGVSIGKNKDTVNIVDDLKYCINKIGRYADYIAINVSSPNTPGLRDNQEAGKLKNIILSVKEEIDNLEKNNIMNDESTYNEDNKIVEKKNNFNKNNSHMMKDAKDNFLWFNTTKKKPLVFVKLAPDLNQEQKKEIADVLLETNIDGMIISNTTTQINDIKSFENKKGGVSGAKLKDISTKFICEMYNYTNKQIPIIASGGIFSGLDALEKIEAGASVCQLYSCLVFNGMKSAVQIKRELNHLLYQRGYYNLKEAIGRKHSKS
Assay: Inhibition of Plasmodium falciparum DHODH-mediated 2,6-dichloroindophenol reduction after 20 mins by spectrophotometry
Conditions: not given

For C[C@@H]1CN([C@@H](C)CN(C)C)C(=O)c2cc(NC(=O)Nc3ccccc3)ccc2O[C@@H](C)CCCCO[C@H]1CN(C)S(=O)(=O)c1ccc(F)cc1, the INH was over 30 µM.
